Experimental data taken from patent publication US20230146395A1, “Substituted Pyrimidines and Uses Thereof” (Verge Analytics, Inc., priority 2020, published 2023).
pIC50: −log10 of the molar value. Where a name gives a salt, the structure may show the parent alone.

Molecular target: T1, Full length human recombinant PIKFYVE (Homo sapiens, UniProt Q9Y2I7)
T1 construct: Full length human recombinant PIKFYVE; purchased Carna Biosciences (Kobe, Japan); host or cells: baculovirus expression system
Experiment: Inhibition of PIKfyve (microfluidic electrophoresis kinase assay, PI3P/PS substrate)
Assay type: biochemical
Conditions: 12 concentrations
Method: Full length human recombinant PIKFYVE expressed in baculovirus expression system as N-terminal GST-fusion protein (265 kDa) was obtained from Carna Biosciences (Kobe, Japan). The kinase substrate was prepared by mixing and sonicating fluorescently-labeled phosphatidylinositol 3-phosphate (PI3P) with phospho-L-serine (PS) at a 1:10 ratio in 50 mM HEPES buffer pH 7.5.
The kinase reactions were assembled in 384-well plates (Greiner) in a total volume of […] as follows. Kinase protein was pre-diluted in an assay buffer comprising 25 mM HEPES, pH 7.5, 1 mM DTT, 2.5 mM MgCl2, and 2.5 mM MnCl2, and 0.005% Triton X-100, and dispensed into a 384-well plate (10 μL per well). Test compounds were serially pre-diluted in DMSO and added to the protein samples by acoustic dispensing (Labcyte Echo). The concentration of DMSO was equalized to 1% in all samples. All test compounds were tested at 12 concentrations. Apilimod was used as a reference compound and was tested in identical manner in each assay plate. Control samples (0%-inhibition, in the absence of inhibitor, DMSO only) and 100%-inhibition (in the absence of enzyme) were assembled in replicates of four and were used to calculate %-inhibition in the presence of compounds. The reactions were initiated by addition of 10 μL of 2×PI3P/PS substrate supplemented with ATP. The final concentration of enzyme was 2 nM, the final concentration of ATP was […], and the final concentration of PI3P/PS substrate was 1 μM (PI3P). The kinase reactions were allowed to proceed for 3 h at room temperature. Following incubation, the reactions were quenched by addition of […] of termination buffer (100 mM HEPES, pH 7.5, 0.01% Triton X-100, 20 mM EDTA). Terminated plates were analyzed on a microfluidic electrophoresis instrument (Caliper LabChip® 3000, Caliper Life Sciences/Perkin Elmer). The change in the relative fluorescence intensity of the PI(3)P substrate and PI(3,5)P product peaks was measured. The activity in each test sample was determined as the product to sum ratio (PSR): P/(S+P), where P is the peak height of the product, and S is the peak height of the substrate. Percent inhibition (Pinh) was determined using the following equation:
Pinh=(PSR0% inh−PSRcompound)/(PSR0% inh−PSR100% inh)*100
in which PSRcompound is the product/sum ratio in the presence of compound, PSR0% inh is the product/sum ratio in the absence of compound, and the PSR100% inh is the product/sum ratio in the absence of the enzyme.

T1 sequence (Q9Y2I7 whole entry): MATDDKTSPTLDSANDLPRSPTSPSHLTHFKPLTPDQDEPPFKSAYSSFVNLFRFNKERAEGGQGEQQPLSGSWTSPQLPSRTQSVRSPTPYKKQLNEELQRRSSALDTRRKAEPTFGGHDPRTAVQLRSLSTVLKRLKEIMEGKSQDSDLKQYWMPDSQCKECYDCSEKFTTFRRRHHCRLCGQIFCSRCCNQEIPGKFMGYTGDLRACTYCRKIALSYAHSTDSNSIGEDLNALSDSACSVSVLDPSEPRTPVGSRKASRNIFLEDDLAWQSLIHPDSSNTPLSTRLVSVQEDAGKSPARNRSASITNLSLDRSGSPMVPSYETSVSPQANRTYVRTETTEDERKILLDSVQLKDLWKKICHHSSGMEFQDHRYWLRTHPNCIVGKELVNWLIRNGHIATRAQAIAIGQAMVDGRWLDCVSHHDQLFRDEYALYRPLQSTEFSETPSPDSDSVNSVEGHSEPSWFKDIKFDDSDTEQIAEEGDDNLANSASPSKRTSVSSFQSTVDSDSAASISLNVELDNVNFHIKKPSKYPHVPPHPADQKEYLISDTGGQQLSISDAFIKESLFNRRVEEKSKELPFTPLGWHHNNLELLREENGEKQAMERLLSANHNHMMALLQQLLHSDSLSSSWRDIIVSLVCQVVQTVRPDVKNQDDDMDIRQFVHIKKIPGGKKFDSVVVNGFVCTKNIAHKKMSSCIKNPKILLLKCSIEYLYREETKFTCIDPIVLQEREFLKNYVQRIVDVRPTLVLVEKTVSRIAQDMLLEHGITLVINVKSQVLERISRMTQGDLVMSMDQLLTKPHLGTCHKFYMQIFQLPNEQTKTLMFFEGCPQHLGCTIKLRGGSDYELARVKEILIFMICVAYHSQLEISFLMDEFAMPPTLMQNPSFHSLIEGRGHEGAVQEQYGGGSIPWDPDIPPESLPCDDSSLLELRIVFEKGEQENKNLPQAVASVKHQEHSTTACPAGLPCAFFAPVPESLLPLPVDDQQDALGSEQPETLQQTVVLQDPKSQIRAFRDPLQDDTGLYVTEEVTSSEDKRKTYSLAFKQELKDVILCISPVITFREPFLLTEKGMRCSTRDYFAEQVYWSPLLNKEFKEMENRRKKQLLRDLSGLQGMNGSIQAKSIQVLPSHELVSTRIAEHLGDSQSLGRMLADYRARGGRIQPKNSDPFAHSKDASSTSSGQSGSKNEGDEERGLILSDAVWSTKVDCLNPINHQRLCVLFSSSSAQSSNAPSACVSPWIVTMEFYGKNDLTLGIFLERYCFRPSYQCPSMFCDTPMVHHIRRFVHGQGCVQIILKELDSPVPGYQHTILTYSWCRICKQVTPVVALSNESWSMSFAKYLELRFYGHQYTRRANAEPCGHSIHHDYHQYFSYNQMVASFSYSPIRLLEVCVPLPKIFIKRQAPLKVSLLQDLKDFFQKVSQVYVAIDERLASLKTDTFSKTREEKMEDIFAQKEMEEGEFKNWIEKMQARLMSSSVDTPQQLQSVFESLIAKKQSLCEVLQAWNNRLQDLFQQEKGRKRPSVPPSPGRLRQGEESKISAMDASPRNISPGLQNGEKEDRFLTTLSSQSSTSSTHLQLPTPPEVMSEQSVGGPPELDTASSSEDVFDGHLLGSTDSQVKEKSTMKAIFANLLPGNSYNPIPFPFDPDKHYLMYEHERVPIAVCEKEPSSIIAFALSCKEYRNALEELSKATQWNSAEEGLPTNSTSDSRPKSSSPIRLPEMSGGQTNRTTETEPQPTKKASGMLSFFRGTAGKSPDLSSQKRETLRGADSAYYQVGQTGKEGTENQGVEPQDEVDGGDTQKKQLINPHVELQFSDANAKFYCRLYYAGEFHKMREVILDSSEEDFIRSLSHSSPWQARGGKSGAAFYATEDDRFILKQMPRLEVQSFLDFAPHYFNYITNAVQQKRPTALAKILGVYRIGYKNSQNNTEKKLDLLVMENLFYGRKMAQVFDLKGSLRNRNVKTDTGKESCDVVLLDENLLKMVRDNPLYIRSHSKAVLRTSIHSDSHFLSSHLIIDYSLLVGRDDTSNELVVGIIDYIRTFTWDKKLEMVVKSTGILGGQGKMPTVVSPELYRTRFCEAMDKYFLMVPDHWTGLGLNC

With `c1cc(-c2cc3nc(Nc4cc(CC5CC5)n[nH]4)nc(N4CCOCC4)c3o2)ccn1` [Compound 69, N-(3-(cyclopropylmethyl)-1H-pyrazol-5-yl)-4-morpholino-6-(pyridin-4-yl)furo[3,2-d]pyrimidin-2-amine hydrochloride] the pIC50 was 6.47.

`c1cc(-c2cc3nc(Nc4cc(CC5CCC5)n[nH]4)nc(N4CCOCC4)c3o2)ccn1` [Compound 71] gave a pIC50 of 7.10.

`FC(F)(F)c1cc(Nc2nc(N3CCOCC3)c3oc(-c4ccncc4)cc3n2)[nH]n1` [Compound 72, 4-morpholino-6-(pyridin-4-yl)-N-(5-(trifluoromethyl)-1H-pyrazol-3-yl)furo[3,2-d]pyrimidin-2-amine, hydrogen chloride] was tested, and the pIC50 was 6.26.

In the case of `c1ccc(Cc2cc(Nc3nc(N4CCOCC4)c4oc(-c5ccncc5)cc4n3)[nH]n2)cc1` [Compound 73, N-(5-benzyl-1H-pyrazol-3-yl)-4-morpholino-6-(pyridin-4-yl)furo[3,2-d]pyrimidin-2-amine, hydrogen chloride], the pIC50 was 6.85.

For `c1cc(-c2cc3nc(Nc4cc(C5CCCC5)n[nH]4)nc(N4CCOCC4)c3o2)ccn1` [Compound 74, N-(5-cyclopentyl-1H-pyrazol-3-yl)-4-morpholino-6-(pyridin-4-yl)furo[3,2-d]pyrimidin-2-amine, hydrogen chloride], the pIC50 was 6.65.

For `c1csc(-c2cc(Nc3nc(N4CCOCC4)c4oc(-c5ccncc5)cc4n3)[nH]n2)c1` [Compound 75, 4-morpholino-6-(pyridin-4-yl)-N-(5-(thiophen-2-yl)-1H-pyrazol-3-yl)furo[3,2-d]pyrimidin-2-amine, hydrogen chloride], the pIC50 was 8.85.

With `c1cc(-c2cc3nc(Nc4cc(-c5ccsc5)n[nH]4)nc(N4CCOCC4)c3o2)ccn1` [Compound 76, 4-morpholino-6-(pyridin-4-yl)-N-(5-(thiophen-3-yl)-1H-pyrazol-3-yl)furo[3,2-d]pyrimidin-2-amine, hydrogen chloride] the pIC50 was 8.96.

`CC(C)c1cc(Nc2nc(N3CCOCC3)c3oc(-c4ccncc4)cc3n2)[nH]n1` [Compound 77, N-(5-isopropyl-1H-pyrazol-3-yl)-4-morpholino-6-(pyridin-4-yl)furo[3,2-d]pyrimidin-2-amine, hydrogen chloride] was tested, and the pIC50 was 6.76.

In the case of `CNC(=O)c1cc2nc(Nc3cc(C4CC4)n[nH]3)nc(N3CCOCC3)c2o1` [Compound 78, 2-((3-cyclopropyl-1H-pyrazol-5-yl)amino)-N-methyl-4-morpholinofuro[3,2-d]pyrimidine-6-carboxamide hydrochloride], the pIC50 was 5.11.

Work on `CNC(=O)c1cc2nc(Nc3cc(CC4CC4)n[nH]3)nc(N3CCOCC3)c2o1` [Compound 79, 2-((5-(cyclopropylmethyl)-1H-pyrazol-3-yl)amino)-N-methyl-4-morpholinofuro[3,2-d]pyrimidine-6-carboxamide, hydrogen chloride] yielded a pIC50 of at most 5.00.

For `CNC(=O)c1cc2nc(Nc3cc(C(F)(F)F)n[nH]3)nc(N3CCOCC3)c2o1` [Compound 81, N-methyl-4-morpholino-2-((5-(trifluoromethyl)-1H-pyrazol-3-yl)amino)furo[3,2-d]pyrimidine-6-carboxamide, hydrogen chloride], the pIC50 was at most 5.00.

`CNC(=O)c1cc2nc(Nc3cc(Cc4ccccc4)n[nH]3)nc(N3CCOCC3)c2o1` [Compound 82] gave a pIC50 of 5.86.

Work on `CNC(=O)c1cc2nc(Nc3cc(-c4cccs4)n[nH]3)nc(N3CCOCC3)c2o1` [Compound 85, N-methyl-4-morpholino-2-((5-(thiophen-2-yl)-1H-pyrazol-3-yl)amino)furo[3,2-d]pyrimidine-6-carboxamide, hydrogen chloride] yielded a pIC50 of 7.16.

`CNC(=O)c1cc2nc(Nc3cc(-c4ccsc4)n[nH]3)nc(N3CCOCC3)c2o1` [Compound 86, N-methyl-4-morpholino-2-((5-(thiophen-3-yl)-1H-pyrazol-3-yl)amino)furo[3,2-d]pyrimidine-6-carboxamide, hydrogen chloride] gave a pIC50 of 7.21.

For `CNC(=O)c1cc2nc(Nc3cc(C(C)C)n[nH]3)nc(N3CCOCC3)c2o1` [Compound 88, 2-((5-isopropyl-1H-pyrazol-3-yl)amino)-N-methyl-4-morpholinofuro[3,2-d]pyrimidine-6-carboxamide, hydrogen chloride], the pIC50 was 5.13.

`CNC(=O)c1cc2nc(-n3ccc(-c4cccc(C)c4)n3)nc(N3CCOCC3)c2o1` [Compound 92, N-methyl-4-morpholino-2-(3-(m-tolyl)-1H-pyrazol-1-yl)furo[3,2-d]pyrimidine-6-carboxamide] showed a pIC50 of 7.04.

Molecule `Cc1cccc(-c2ccn(-c3nc(N4CCOCC4)c4oc(C(N)=O)cc4n3)n2)c1` [Compound 94, 4-morpholino-2-(3-(m-tolyl)-1H-pyrazol-1-yl)furo[3,2-d]pyrimidine-6-carboxamide] has a pIC50 of 7.06.

Work on `Cc1cccc(-c2ccn(-c3nc(N4CCOCC4)c4oc(C(=O)NS(C)(=O)=O)cc4n3)n2)c1` [Compound 98, N-(methylsulfonyl)-4-morpholino-2-(3-(m-tolyl)-1H-pyrazol-1-yl)furo[3,2-d]pyrimidine-6-carboxamide] yielded a pIC50 of 7.10.

`CONC(=O)c1cc2nc(-n3ccc(-c4cccc(C)c4)n3)nc(N3CCOCC3)c2o1` [Compound 99, N-methoxy-4-morpholino-2-(3-(m-tolyl)-1H-pyrazol-1-yl)fur[3,2-d]pyrimidine-6-carboxamide] gave a pIC50 of 7.11.

For `O=C(NCC1CC1)c1cc2nc(-n3cc(-c4ccccc4)cn3)nc(N3CCOCC3)c2o1` [Compound 116, N-(cyclopropylmethy 1)-4-morpholino-2-(4-phenyl-1H-pyrazol-1-yl)furo[3,2-d]pyrimidine-6-carboxamide], the pIC50 was 7.31.

With `COCCNC(=O)c1cc2nc(-n3cc(-c4ccccc4)cn3)nc(N3CCOCC3)c2o1` [Compound 118, N-(2-methoxyethyl)-4-morpholino-2-(4-phenyl-1H-pyrazol-1-yl)furo[3,2-d]pyrimidine-6-carboxamide] the pIC50 was 6.51.

`Cc1cccc(-c2ccn(-c3nc(N4CCOCC4)c4oc(-c5ccccn5)c(C)c4n3)n2)c1` [Compound 122, 7-methyl-4-morpholino-6-(pyridin-2-yl)-2-(3-(m-tolyl)-1H-pyrazol-1-yl)furo[3,2-d]pyrimidine] showed a pIC50 of 7.90.

`Cc1cccc(-c2cnn(-c3nc(N4CCOCC4)c4oc(C(=O)NCCS(=O)(=O)N(C)C)cc4n3)c2)c1` [Compound 128, N-(2-(N,N-dimethylsulfamoyl)ethyl)-4-morpholino-2-(4-(m-tolyl)-1H-pyrazol-1-yl)furo[3,2-d]pyrimidine-6-carboxamide] showed a pIC50 of 7.18.

Work on `Cc1cccc(-c2cnn(-c3nc(N4CC(F)(F)OC(F)(F)C4)c4oc(-c5cccnc5)cc4n3)c2)c1` [Compound 133, 6-(pyridin-3-yl)-4-(2,2,6,6-tetrafluoromorpholino)-2-(4-(m-tolyl)-1H-pyrazol-1-yl)furo[3,2-d]pyrimidine] yielded a pIC50 of under 4.70.

Work on `CCNC(=O)c1cc2nc(-n3cc(-c4cccc(C)c4)cn3)nc(N3CC(F)(F)OC(F)(F)C3)c2o1` [Compound 134, N-ethyl-4-(2,2,6,6-tetrafluoromorpholino)-2-(4-(m-tolyl)-1H-pyrazol-1-yl)furo[3,2-d]pyrimidine-6-carboxamide] yielded a pIC50 of under 4.70.

`O=C(c1cc2nc(Nc3cc(-c4ccccc4)[nH]n3)nc(N3CCOCC3)c2o1)N1CCOCC1` [Compound 135, morpholino(4-morpholino-2-((5-phenyl-1H-pyrazol-3-yl)amino)furo[3,2-d]pyrimidin-6-yl)methanone] showed a pIC50 of 6.83.

For `CN1CCN(C(=O)c2cc3nc(Nc4cc(-c5ccccc5)[nH]n4)nc(N4CCOCC4)c3o2)CC1` [Compound 136, (4-methylpiperazin-1-yl)(4-morpholino-2-((5-phenyl-1H-pyrazol-3-yl)amino)furo[3,2-d]pyrimidin-6-yl)methanone], the pIC50 was 7.03.

For `CN(C)C(=O)c1cc2nc(Nc3cc(-c4ccccc4)[nH]n3)nc(N3CCOCC3)c2o1` [Compound 137, N,N-dimethyl-4-morpholino-2-((5-phenyl-1H-pyrazol-3-yl)amino)furo[3,2-d]pyrimidine-6-carboxamide], the pIC50 was 7.02.

`CNC(=O)c1cc2nc(Nc3cc(-c4ccccc4)[nH]n3)nc(N3CCOCC3)c2o1` [Compound 138, N-methyl-4-morpholino-2-((5-phenyl-1H-pyrazol-3-yl)amino)furo[3,2-d]pyrimidine-6-carboxamide] gave a pIC50 of 7.48.

In the case of `CON(C)C(=O)c1cc2nc(Nc3cc(-c4ccccc4)[nH]n3)nc(N3CCOCC3)c2o1` [Compound 139, N-methoxy-N-methyl-4-morpholino-2-((5-phenyl-1H-pyrazol-3-yl)amino)furo[3,2-d]pyrimidine-6-carboxamide], the pIC50 was 7.66.
